# From ChEMBL document CHEMBL6074682, “Expanding the therapeutic window of gramicidin S towards a safe and effective systemic treatment of methicillin-resistant S. aureus infections” (Eur J Med Chem, 2025)
# Square brackets hold non-standard residues; d marks the D form. Peptide text beside a SMILES is read from it. Tle = CC(C)(C)[C@H](N)C(=O)O; Orn = NCCC[C@H](N)C(=O)O
# Tests used:
# [1] = Hemolytic activity in human RBC assessed as hemolysis incubated for 1 hr by absorbance based assay; format: toxicity, cell-based, Erythrocyte; settings: human red blood cells
# [2] = tested on: Staphylococcus aureus; experiment: Antibacterial activity against methicillin-sensitive Staphylococcus aureus ATCC 29213 clinical isolate assessed as bacterial growth inhibition at 256 to 0.125 ug/ml in CAMH broth medium incubated for 16 to 20 hrs by broth microdilution method; format: functional; settings: dose 256-0.125 µg/ml, time 16-20 hrs
# [3] = Nephrotoxicity against HEK293 cells assessed as cell viability incubated for 24 hrs by MTT assay; format: toxicity, cell-based; settings: human
# [4] = Retention time of the compound by RP-HPLC analysis; format: physicochemical
# [5] = tested on: Staphylococcus aureus; experiment: Antibacterial activity against methicillin-resistant Staphylococcus aureus ATCC USA 300 clinical isolate assessed as bacterial growth inhibition at 256 to 0.125 ug/ml in CAMH broth medium incubated for 16 to 20 hrs by broth microdilution method; format: functional; settings: dose 256-0.125 µg/ml, time 16-20 hrs
# [6] = Therapeutic index, ratio of HC50 for human RBC to MIC for antibacterial activity against methicillin-sensitive Staphylococcus aureus ATCC 29213 clinical isolate; format: toxicity, cell-based; settings: pooled result: one value given for 2 cell lines, strains, targets or settings, read-out: TI
Structure (SMILES),HC50 at 1 h [1] [µg/mL],MIC [2] [µg/mL],IC50 at 24 h [3] [µg/mL],Retention_time [4] [min],MIC [5] [µg/mL],selectivity ratio [6]
CC(C)C[C@@H]1NC(=O)[C@H](CCCN)NC(=O)[C@H](C(C)(C)C)NC(=O)[C@@H]2CCCN2C(=O)[C@@H](Cc2ccccc2)NC(=O)[C@H](CC(C)C)NC(=O)[C@H](CCCN)NC(=O)[C@H](C(C)C)NC(=O)[C@@H]2CCCN2C(=O)[C@@H](CCCNC(=N)N)NC1=O,60.2,6,19.5,16.8,6,10
CC(C)C[C@@H]1NC(=O)[C@H](CCCN)NC(=O)[C@H](C(C)(C)C)NC(=O)[C@@H]2CCCN2C(=O)[C@@H](CCCNC(=N)N)NC(=O)[C@H](CC(C)C)NC(=O)[C@H](CCCN)NC(=O)[C@H](C(C)C)NC(=O)[C@@H]2CCCN2C(=O)[C@@H](Cc2ccccc2)NC1=O,50.5,7,38.1,16.79,7,7.21
CC(C)C[C@@H]1NC(=O)[C@H](CCCN)NC(=O)[C@H](C(C)C)NC(=O)[C@H](Cc2c[nH]c3ccccc23)NC(=O)[C@@H](Cc2c[nH]c3ccccc23)NC(=O)[C@H](CC(C)C)NC(=O)[C@H](CCCN)NC(=O)[C@H](C(C)C)NC(=O)[C@H](Cc2c[nH]c3ccccc23)NC(=O)[C@@H](Cc2c[nH]c3ccccc23)NC1=O,55.6,32,19.7,18.69,32,1.74
"CC(C)C[C@@H]1NC(=O)[C@H](CCCN)NC(=O)[C@H](C(C)C)NC(=O)[C@@H]2CCCN2C(=O)[C@@H](Cc2ccccc2)NC(=O)[C@H](CC(C)C)NC(=O)[C@H](CCCN)NC(=O)[C@H](C(C)C)NC(=O)[C@H](Cc2c[nH]c3ccccc23)NC(=O)[C@@H](Cc2ccccc2)NC1=O (HELM PEPTIDE1{L.[dF].P.V.[Orn].L.[dF].W.V.[Orn]}$PEPTIDE1,PEPTIDE1,1:R1-10:R2$$$V2.0)",9.04,4,5.07,18.78,4,2.26
"CC(C)C[C@@H]1NC(=O)[C@H](CCCN)NC(=O)[C@H](C(C)C)NC(=O)[C@@H]2CCCN2C(=O)[C@@H](Cc2ccccc2)NC(=O)[C@H](CC(C)C)NC(=O)[C@H](CCCN)NC(=O)[C@H](C(C)C)NC(=O)[C@H](Cc2c[nH]c3ccccc23)NC(=O)[C@@H](CCCNC(=N)N)NC1=O (HELM PEPTIDE1{L.[dF].P.V.[Orn].L.[dR].W.V.[Orn]}$PEPTIDE1,PEPTIDE1,1:R1-10:R2$$$V2.0)",32.8,5,13.6,16.56,5,6.56
"CC(C)C[C@@H]1NC(=O)[C@H](CCCN)NC(=O)[C@H](C(C)C)NC(=O)[C@@H]2CCCN2C(=O)[C@@H](Cc2ccccc2)NC(=O)[C@H](CC(C)C)NC(=O)[C@H](CCCN)NC(=O)[C@H](C(C)C)NC(=O)[C@H](Cc2c[nH]c3ccccc23)NC(=O)[C@@H](Cc2c[nH]c3ccccc23)NC1=O (HELM PEPTIDE1{L.[dF].P.V.[Orn].L.[dW].W.V.[Orn]}$PEPTIDE1,PEPTIDE1,1:R1-10:R2$$$V2.0)",5.85,4,4.64,18.78,4,1.46
"CC(C)C[C@@H]1NC(=O)[C@H](CCCN)NC(=O)[C@H](C(C)(C)C)NC(=O)[C@@H]2CCCN2C(=O)[C@@H](Cc2ccccc2)NC(=O)[C@H](CC(C)C)NC(=O)[C@H](CCCN)NC(=O)[C@H](C(C)C)NC(=O)[C@@H]2CCCN2C(=O)[C@@H](Cc2ccccc2)NC1=O (HELM PEPTIDE1{L.[dF].P.[CC(C)(C)[C@H](N[*:1])C(=O)[*:2]].[Orn].L.[dF].P.V.[Orn]}$PEPTIDE1,PEPTIDE1,1:R1-10:R2$$$V2.0)",7.49,4,5.46,19.38,4,1.87
"CC(C)C[C@@H]1NC(=O)[C@H](CCCN)NC(=O)[C@H](C(C)(C)C)NC(=O)[C@@H]2CCCN2C(=O)[C@@H](Cc2ccccc2)NC(=O)[C@H](CC(C)C)NC(=O)[C@H](CCCN)NC(=O)[C@H](C(C)(C)C)NC(=O)[C@@H]2CCCN2C(=O)[C@@H](Cc2ccccc2)NC1=O (HELM PEPTIDE1{L.[dF].P.[CC(C)(C)[C@H](N[*:1])C(=O)[*:2]].[Orn].L.[dF].P.[CC(C)(C)[C@H](N[*:1])C(=O)[*:2]].[Orn]}$PEPTIDE1,PEPTIDE1,1:R1-10:R2$$$V2.0)",6.26,4,4.62,19.99,4,1.57
"CC(C)C[C@@H]1NC(=O)[C@H](CCCN)NC(=O)[C@H](C(C)(C)C)NC(=O)[C@@H]2CCCN2C(=O)[C@@H](Cc2ccccc2)NC(=O)[C@H](CC(C)C)NC(=O)[C@H](CCCN)NC(=O)[C@H](C(C)(C)C)NC(=O)[C@@H]2CCCN2C(=O)[C@@H](CCCNC(=N)N)NC1=O (HELM PEPTIDE1{L.[dF].P.[CC(C)(C)[C@H](N[*:1])C(=O)[*:2]].[Orn].L.[dR].P.[CC(C)(C)[C@H](N[*:1])C(=O)[*:2]].[Orn]}$PEPTIDE1,PEPTIDE1,1:R1-10:R2$$$V2.0)",17.7,3,9.75,17.15,3,5.9
"CC(C)C[C@@H]1NC(=O)[C@H](CCCN)NC(=O)[C@H](C(C)C)NC(=O)[C@H](Cc2c[nH]c3ccccc23)NC(=O)[C@@H](Cc2ccccc2)NC(=O)[C@H](CC(C)C)NC(=O)[C@H](CCCN)NC(=O)[C@H](C(C)C)NC(=O)[C@H](Cc2c[nH]c3ccccc23)NC(=O)[C@@H](Cc2ccccc2)NC1=O (HELM PEPTIDE1{L.[dF].W.V.[Orn].L.[dF].W.V.[Orn]}$PEPTIDE1,PEPTIDE1,1:R1-10:R2$$$V2.0)",12.2,7,5.03,18.58,7,1.75
"CC(C)C[C@@H]1NC(=O)[C@H](CCCN)NC(=O)[C@H](C(C)C)NC(=O)[C@@H]2CCCN2C(=O)[C@@H](CCCNC(=N)N)NC(=O)[C@H](CC(C)C)NC(=O)[C@H](CCCN)NC(=O)[C@H](C(C)C)NC(=O)[C@H](Cc2c[nH]c3ccccc23)NC(=O)[C@@H](Cc2ccccc2)NC1=O (HELM PEPTIDE1{L.[dF].W.V.[Orn].L.[dR].P.V.[Orn]}$PEPTIDE1,PEPTIDE1,1:R1-10:R2$$$V2.0)",31.9,5,11.3,16.5,5,6.38
"CC(C)C[C@@H]1NC(=O)[C@H](CCCN)NC(=O)[C@H](C(C)C)NC(=O)[C@H](Cc2c[nH]c3ccccc23)NC(=O)[C@@H](Cc2ccccc2)NC(=O)[C@H](CC(C)C)NC(=O)[C@H](CCCN)NC(=O)[C@H](C(C)C)NC(=O)[C@H](Cc2c[nH]c3ccccc23)NC(=O)[C@@H](CCCNC(=N)N)NC1=O (HELM PEPTIDE1{L.[dF].W.V.[Orn].L.[dR].W.V.[Orn]}$PEPTIDE1,PEPTIDE1,1:R1-10:R2$$$V2.0)",19.6,5,5.36,16.6,5,3.93
"CC(C)C[C@@H]1NC(=O)[C@H](CCCN)NC(=O)[C@H](C(C)C)NC(=O)[C@H](Cc2c[nH]c3ccccc23)NC(=O)[C@@H](Cc2c[nH]c3ccccc23)NC(=O)[C@H](CC(C)C)NC(=O)[C@H](CCCN)NC(=O)[C@H](C(C)C)NC(=O)[C@H](Cc2c[nH]c3ccccc23)NC(=O)[C@@H](Cc2ccccc2)NC1=O (HELM PEPTIDE1{L.[dF].W.V.[Orn].L.[dW].W.V.[Orn]}$PEPTIDE1,PEPTIDE1,1:R1-10:R2$$$V2.0)",37.2,64,4.07,18.68,64,0.58
CC(C)(C)[C@@H]1NC(=O)[C@H](CCCN)NC(=O)[C@H](C(C)(C)C)NC(=O)[C@@H]2CCCN2C(=O)[C@@H](Cc2ccccc2)NC(=O)[C@H](C(C)(C)C)NC(=O)[C@H](CCCN)NC(=O)[C@H](C(C)(C)C)NC(=O)[C@@H]2CCCN2C(=O)[C@@H](Cc2ccccc2)NC1=O (cyclo([Orn][Tle][dF]P[Tle][Orn][Tle][dF]P[Tle])),5.9,2,5.31,19.9,2,2.95
